pIC50: −log10 of the molar value.
Key:
Bos taurus = organism: Bos taurus; experiment: Ratio of IC50 of chlorpromazine to IC50 of compound for bovine brain PDE1
[1] = Inhibition of bovine brain PDE1; set-up: species or system Bos taurus

| SMILES | Ratio IC50 (Bos taurus) | pIC50 [1] |
| --- | --- | --- |
| CC1(C)c2[nH]c3cc(Cl)ccc3c2C[C@@]23NC(=O)[C@]4(CCCN4C2=O)C[C@@H]13 | 0.2 | 4.21 |
| CC1(C)c2[nH]c3cc(Cl)ccc3c2C[C@@]23CN4CCC[C@]4(C[C@@H]12)C(=O)N3 [MALBRANCHEAMIDE B] | 0.1 | 3.74 |
| CC1(C)c2[nH]c3ccc(Cl)c(Cl)c3c2C[C@@]23NC[C@]4(CCCN4C2=O)C[C@H]13 | 0.4 | 4.56 |
| CC1(C)c2[nH]c3ccc(Cl)cc3c2C[C@@]23NC(=O)[C@]4(CCCN4C2=O)C[C@@H]13 | 0.4 | 4.50 |
| CC1(C)c2[nH]c3ccc(Cl)cc3c2C[C@@]23CN4CCC[C@]4(C[C@@H]12)C(=O)N3 | 0.2 | 4.22 |
| CC1(C)c2[nH]c3cc(Cl)ccc3c2C[C@@]23NC(=O)[C@]4(CCCN4C2=O)C[C@H]13 | 0.3 | 4.37 |
| CC1(C)c2[nH]c3ccc(Cl)cc3c2C[C@@]23NC(=O)[C@]4(CCCN4C2=O)C[C@H]13 | 0.2 | 4.21 |
| CC1(C)c2[nH]c3cc(Cl)c(Cl)cc3c2C[C@@]23NC(=O)[C@]4(CCCN4C2=O)C[C@H]13 | 0.5 | 4.47 |
| CC1(C)c2[nH]c3cc(Cl)c(Cl)cc3c2CC23CN4CCCC4(CC21)C(=O)N3 (racemic) | 1.1 | 4.80 |
| CC1(C)c2[nH]c3ccccc3c2C[C@@]23NC(=O)[C@]4(CCCN4C2=O)C[C@@H]13 | 0.1 | 3.82 |
| CC1(C)c2[nH]c3ccccc3c2C[C@@]23CN4CCC[C@]4(C[C@@H]12)C(=O)N3 | 0.5 | 4.45 |
| CC1(C)c2[nH]c3ccc(Cl)c(Cl)c3c2C[C@@]23CN4CCC[C@]4(C[C@H]12)C(=O)N3 | 0.1 | 4.09 |
| CC1(C)c2[nH]c3cc(Cl)c(Cl)cc3c2C[C@@]23NC[C@]4(CCCN4C2=O)C[C@H]13 | 0.9 | 4.92 |
| CC1(C)c2[nH]c3ccccc3c2C[C@@]23NC(=O)[C@]4(CCCN4C2=O)C[C@H]13 | 0.7 | 4.63 |
| CC1(C)c2[nH]c3cc(Cl)c(Cl)cc3c2C[C@@]23NC(=O)[C@]4(CCCN4C2=O)C[C@@H]13 | 0.9 | 4.73 |
| CC1(C)c2[nH]c3ccc(Cl)c(Cl)c3c2C[C@@]23NC(=O)[C@]4(CCCN4C2=O)C[C@H]13 | 0.2 | 4.34 |
| CC1(C)c2[nH]c3cc(Cl)c(Cl)cc3c2C[C@@]23CN4CCC[C@]4(C[C@H]12)C(=O)N3 | 0.1 | 3.87 |
| CC1(C)c2[nH]c3cc(Cl)ccc3c2CC23CN4CCCC4(CC21)C(=O)N3 (racemic) [D,L-MALBRANCHEAMIDE B] | 0.3 | 4.37 |
| CC1(C)c2[nH]c3cc(Cl)c(Cl)cc3c2C[C@@]23CN4CCC[C@]4(C[C@@H]12)C(=O)N3 | 0.9 | 4.71 |

Reference: ChEMBL document CHEMBL1152178, “Calmodulin inhibitory activity of the malbrancheamides and various analogs” (Bioorg Med Chem Lett, 2008)
